# Source: PMC5564600 (Oncotarget, 2017)
# Tests used:
# Test in all cases: biochemical
# Type in all cases: binding
# panel of 442 kinases [1] = biological target: T1, panel of 442 kinases (Homo sapiens, UniProt Q96Q40); details: kinase PFTAIRE2; for remaining activity at 1 µM: read-out: % of control at 1 µM
# T1 construct: purchased Ambit Biosciences (scanMAXX KINOMEscan)
# panel of 442 kinases [2] = biological target: T2, panel of 442 kinases (Homo sapiens, UniProt P49137); details: kinase MAPKAPK2; for remaining activity at 1 µM: read-out: % of control at 1 µM
# T2 construct: purchased Ambit Biosciences (scanMAXX KINOMEscan)
# panel of 442 kinases [3] = biological target: T3, panel of 442 kinases (Homo sapiens, UniProt Q9Y2H1); details: kinase NDR2; for remaining activity at 1 µM: read-out: % of control at 1 µM
# T3 construct: purchased Ambit Biosciences (scanMAXX KINOMEscan)
# panel of 442 kinases [4] = biological target: T4, panel of 442 kinases (Homo sapiens, UniProt Q9BYT3); details: kinase STK33; for remaining activity at 1 µM: read-out: STK33 (% of control at 1 µM)
# T4 construct: purchased Ambit Biosciences (scanMAXX KINOMEscan)
# panel of 442 kinases [5] = biological target: T5, panel of 442 kinases (Homo sapiens, UniProt Q13163); details: kinase MEK5; for remaining activity at 1 µM: read-out: % of control at 1 µM
# T5 construct: purchased Ambit Biosciences (scanMAXX KINOMEscan)
# T5 sequence (Q13163 1-448): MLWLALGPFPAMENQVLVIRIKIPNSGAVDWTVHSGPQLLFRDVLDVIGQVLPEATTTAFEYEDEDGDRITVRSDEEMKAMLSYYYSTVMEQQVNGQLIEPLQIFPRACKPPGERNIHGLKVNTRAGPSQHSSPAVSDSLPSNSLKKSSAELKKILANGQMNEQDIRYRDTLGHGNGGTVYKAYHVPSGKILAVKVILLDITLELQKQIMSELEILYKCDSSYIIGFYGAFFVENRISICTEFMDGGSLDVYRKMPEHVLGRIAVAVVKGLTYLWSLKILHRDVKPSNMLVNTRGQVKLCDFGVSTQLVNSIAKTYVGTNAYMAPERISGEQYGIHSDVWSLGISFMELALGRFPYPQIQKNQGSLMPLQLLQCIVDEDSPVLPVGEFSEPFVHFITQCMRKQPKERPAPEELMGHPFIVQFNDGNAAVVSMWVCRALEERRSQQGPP
# panel of 442 kinases [6] = biological target: T6, panel of 442 kinases (Homo sapiens, UniProt O00506); details: kinase YSK1; for remaining activity at 1 µM: read-out: YSK1 (% of control at 1 µM)
# T6 construct: purchased Ambit Biosciences (scanMAXX KINOMEscan)
# panel of 442 kinases [7] = biological target: T7, panel of 442 kinases (Homo sapiens, UniProt P48729); details: CSNK1A1; for remaining activity at 1 µM: read-out: % of control at 1 µM
# T7 construct: purchased Ambit Biosciences (scanMAXX KINOMEscan)
# panel of 442 kinases [8] = biological target: T8, panel of 442 kinases (Homo sapiens, UniProt P42681); details: kinase TXK; for remaining activity at 1 µM: read-out: TXK (% of control at 1 µM)
# T8 construct: purchased Ambit Biosciences (scanMAXX KINOMEscan)
# T8 sequence (P42681 1-527): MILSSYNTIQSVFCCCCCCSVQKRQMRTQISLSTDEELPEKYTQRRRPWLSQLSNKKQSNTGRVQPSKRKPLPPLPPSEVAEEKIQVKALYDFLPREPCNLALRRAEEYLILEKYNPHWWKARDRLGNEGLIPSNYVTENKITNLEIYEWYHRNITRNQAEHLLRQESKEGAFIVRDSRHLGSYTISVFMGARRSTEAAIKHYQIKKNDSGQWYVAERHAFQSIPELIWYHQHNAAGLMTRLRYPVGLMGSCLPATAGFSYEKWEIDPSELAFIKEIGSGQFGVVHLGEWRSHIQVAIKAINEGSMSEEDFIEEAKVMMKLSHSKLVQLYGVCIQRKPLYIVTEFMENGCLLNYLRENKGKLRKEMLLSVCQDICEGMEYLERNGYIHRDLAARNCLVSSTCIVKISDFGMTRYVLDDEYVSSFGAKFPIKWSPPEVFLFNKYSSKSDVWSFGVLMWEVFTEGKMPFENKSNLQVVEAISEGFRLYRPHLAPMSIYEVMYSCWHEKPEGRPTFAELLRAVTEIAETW
# panel of 442 kinases [9] = biological target: T9, panel of 442 kinases (Homo sapiens, UniProt P10721, L576P); details: kinase KIT(L576P); for remaining activity at 1 µM: read-out: % of control at 1 µM
# T9 construct: purchased Ambit Biosciences (scanMAXX KINOMEscan)
# panel of 442 kinases [10] = biological target: T10, panel of 442 kinases (Homo sapiens, UniProt P07949, V804L); details: kinase RET(V804L); for remaining activity at 1 µM: read-out: RET(V804L) (% of control at 1 µM)
# T10 construct: purchased Ambit Biosciences (scanMAXX KINOMEscan)
# panel of 442 kinases [11] = biological target: T11, panel of 442 kinases (Homo sapiens, UniProt Q15746); details: kinase MYLK; for remaining activity at 1 µM: read-out: % of control at 1 µM
# T11 construct: purchased Ambit Biosciences (scanMAXX KINOMEscan)
# panel of 442 kinases [12] = biological target: T12, panel of 442 kinases (Homo sapiens, UniProt Q59H18); details: kinase TNNI3K; for remaining activity at 1 µM: read-out: TNNI3K (% of control at 1 µM)
# T12 construct: purchased Ambit Biosciences (scanMAXX KINOMEscan)
# T12 sequence (Q59H18 1-835): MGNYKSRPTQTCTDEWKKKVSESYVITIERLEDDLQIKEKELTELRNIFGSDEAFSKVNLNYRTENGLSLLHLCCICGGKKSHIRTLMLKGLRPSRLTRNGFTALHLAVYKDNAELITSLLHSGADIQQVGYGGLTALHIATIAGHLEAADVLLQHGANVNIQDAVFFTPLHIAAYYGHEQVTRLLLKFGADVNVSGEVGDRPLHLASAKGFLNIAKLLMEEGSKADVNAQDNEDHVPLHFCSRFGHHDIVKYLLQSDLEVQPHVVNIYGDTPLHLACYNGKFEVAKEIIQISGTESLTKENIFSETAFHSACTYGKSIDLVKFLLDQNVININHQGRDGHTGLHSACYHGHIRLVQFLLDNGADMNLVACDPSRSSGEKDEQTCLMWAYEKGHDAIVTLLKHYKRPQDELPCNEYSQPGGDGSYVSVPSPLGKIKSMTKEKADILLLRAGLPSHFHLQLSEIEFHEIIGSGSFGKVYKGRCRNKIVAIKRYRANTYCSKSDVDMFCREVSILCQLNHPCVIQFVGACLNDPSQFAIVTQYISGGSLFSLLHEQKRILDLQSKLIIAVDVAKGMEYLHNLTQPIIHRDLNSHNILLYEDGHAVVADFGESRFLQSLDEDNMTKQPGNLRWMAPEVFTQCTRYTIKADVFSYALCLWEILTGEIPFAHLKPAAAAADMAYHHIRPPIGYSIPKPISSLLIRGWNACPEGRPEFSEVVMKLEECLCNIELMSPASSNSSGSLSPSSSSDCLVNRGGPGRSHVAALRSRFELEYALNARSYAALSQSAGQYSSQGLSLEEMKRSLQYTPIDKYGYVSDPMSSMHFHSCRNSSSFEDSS
# panel of 442 kinases [13] = biological target: T13, panel of 442 kinases (Homo sapiens, UniProt Q2M2I8); details: AAK1; for remaining activity at 1 µM: read-out: % of control at 1 µM
# T13 construct: purchased Ambit Biosciences (scanMAXX KINOMEscan)
# [14] = 10 µM, read-out: % of control at 10 µM
# T10 sequence (P07949 29-1114 V804L): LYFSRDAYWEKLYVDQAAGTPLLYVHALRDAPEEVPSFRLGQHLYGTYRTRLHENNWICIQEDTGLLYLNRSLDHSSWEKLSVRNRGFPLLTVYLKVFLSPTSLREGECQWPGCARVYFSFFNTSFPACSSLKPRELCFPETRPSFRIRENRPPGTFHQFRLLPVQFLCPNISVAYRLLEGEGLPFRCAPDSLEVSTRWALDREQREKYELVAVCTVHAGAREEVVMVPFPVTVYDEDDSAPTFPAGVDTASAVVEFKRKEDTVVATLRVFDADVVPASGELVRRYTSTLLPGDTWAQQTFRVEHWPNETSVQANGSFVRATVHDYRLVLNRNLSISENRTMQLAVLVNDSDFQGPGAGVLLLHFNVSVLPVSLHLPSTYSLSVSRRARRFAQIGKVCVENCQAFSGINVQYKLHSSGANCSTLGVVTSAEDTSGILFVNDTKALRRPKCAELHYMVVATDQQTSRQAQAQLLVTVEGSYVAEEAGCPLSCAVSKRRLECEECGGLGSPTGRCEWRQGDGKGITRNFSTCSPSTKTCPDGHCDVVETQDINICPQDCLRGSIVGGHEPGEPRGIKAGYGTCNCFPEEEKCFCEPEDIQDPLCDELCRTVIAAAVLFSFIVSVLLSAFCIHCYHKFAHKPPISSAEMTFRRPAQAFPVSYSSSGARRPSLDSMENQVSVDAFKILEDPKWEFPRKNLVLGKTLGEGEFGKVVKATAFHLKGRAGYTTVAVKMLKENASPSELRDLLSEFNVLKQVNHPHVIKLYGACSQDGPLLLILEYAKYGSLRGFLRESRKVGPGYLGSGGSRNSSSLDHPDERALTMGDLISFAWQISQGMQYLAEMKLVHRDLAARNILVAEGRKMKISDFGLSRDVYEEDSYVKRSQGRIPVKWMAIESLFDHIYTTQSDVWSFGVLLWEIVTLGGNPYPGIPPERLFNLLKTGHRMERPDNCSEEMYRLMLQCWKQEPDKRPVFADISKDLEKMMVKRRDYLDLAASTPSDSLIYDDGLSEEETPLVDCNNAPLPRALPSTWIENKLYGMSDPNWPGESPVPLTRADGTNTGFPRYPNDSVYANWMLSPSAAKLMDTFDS
# T1 sequence (Q96Q40 whole entry): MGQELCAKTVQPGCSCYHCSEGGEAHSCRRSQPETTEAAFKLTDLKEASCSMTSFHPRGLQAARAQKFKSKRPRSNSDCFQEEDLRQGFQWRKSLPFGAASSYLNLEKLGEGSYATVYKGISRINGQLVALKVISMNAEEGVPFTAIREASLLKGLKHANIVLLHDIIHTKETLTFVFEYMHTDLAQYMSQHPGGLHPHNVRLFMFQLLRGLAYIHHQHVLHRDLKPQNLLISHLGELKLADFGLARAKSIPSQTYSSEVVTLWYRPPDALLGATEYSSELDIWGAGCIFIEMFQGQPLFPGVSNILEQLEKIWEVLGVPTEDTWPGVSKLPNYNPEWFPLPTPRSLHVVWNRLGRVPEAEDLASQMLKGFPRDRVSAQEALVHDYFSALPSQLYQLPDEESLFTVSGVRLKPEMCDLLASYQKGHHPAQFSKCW
# T9 sequence (P10721 26-976 L576P): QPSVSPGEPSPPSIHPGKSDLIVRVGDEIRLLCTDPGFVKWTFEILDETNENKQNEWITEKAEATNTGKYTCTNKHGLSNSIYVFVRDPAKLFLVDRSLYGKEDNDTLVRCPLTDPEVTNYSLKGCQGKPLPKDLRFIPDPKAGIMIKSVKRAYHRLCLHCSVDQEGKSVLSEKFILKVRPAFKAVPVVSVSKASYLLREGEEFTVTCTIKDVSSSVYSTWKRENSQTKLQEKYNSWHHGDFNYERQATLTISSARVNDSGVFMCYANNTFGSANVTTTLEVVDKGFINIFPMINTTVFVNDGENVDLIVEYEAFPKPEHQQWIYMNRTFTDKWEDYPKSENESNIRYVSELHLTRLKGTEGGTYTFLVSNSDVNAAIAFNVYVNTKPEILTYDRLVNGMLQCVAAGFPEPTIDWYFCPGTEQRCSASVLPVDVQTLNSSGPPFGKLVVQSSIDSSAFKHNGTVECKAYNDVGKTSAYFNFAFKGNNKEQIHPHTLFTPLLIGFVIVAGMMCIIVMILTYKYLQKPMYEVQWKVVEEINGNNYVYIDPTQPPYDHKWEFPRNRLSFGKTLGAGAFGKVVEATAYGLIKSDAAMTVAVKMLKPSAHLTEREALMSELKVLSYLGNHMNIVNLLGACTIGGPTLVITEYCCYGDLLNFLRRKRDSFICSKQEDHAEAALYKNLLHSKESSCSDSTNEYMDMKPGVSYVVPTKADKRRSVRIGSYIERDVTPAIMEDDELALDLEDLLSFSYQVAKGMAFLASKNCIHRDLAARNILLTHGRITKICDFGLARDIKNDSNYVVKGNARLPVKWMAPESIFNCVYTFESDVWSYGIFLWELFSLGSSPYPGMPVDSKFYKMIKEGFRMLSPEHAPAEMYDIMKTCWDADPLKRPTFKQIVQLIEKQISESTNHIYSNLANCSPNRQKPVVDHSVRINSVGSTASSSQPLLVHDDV
# T11 sequence (Q15746 whole entry): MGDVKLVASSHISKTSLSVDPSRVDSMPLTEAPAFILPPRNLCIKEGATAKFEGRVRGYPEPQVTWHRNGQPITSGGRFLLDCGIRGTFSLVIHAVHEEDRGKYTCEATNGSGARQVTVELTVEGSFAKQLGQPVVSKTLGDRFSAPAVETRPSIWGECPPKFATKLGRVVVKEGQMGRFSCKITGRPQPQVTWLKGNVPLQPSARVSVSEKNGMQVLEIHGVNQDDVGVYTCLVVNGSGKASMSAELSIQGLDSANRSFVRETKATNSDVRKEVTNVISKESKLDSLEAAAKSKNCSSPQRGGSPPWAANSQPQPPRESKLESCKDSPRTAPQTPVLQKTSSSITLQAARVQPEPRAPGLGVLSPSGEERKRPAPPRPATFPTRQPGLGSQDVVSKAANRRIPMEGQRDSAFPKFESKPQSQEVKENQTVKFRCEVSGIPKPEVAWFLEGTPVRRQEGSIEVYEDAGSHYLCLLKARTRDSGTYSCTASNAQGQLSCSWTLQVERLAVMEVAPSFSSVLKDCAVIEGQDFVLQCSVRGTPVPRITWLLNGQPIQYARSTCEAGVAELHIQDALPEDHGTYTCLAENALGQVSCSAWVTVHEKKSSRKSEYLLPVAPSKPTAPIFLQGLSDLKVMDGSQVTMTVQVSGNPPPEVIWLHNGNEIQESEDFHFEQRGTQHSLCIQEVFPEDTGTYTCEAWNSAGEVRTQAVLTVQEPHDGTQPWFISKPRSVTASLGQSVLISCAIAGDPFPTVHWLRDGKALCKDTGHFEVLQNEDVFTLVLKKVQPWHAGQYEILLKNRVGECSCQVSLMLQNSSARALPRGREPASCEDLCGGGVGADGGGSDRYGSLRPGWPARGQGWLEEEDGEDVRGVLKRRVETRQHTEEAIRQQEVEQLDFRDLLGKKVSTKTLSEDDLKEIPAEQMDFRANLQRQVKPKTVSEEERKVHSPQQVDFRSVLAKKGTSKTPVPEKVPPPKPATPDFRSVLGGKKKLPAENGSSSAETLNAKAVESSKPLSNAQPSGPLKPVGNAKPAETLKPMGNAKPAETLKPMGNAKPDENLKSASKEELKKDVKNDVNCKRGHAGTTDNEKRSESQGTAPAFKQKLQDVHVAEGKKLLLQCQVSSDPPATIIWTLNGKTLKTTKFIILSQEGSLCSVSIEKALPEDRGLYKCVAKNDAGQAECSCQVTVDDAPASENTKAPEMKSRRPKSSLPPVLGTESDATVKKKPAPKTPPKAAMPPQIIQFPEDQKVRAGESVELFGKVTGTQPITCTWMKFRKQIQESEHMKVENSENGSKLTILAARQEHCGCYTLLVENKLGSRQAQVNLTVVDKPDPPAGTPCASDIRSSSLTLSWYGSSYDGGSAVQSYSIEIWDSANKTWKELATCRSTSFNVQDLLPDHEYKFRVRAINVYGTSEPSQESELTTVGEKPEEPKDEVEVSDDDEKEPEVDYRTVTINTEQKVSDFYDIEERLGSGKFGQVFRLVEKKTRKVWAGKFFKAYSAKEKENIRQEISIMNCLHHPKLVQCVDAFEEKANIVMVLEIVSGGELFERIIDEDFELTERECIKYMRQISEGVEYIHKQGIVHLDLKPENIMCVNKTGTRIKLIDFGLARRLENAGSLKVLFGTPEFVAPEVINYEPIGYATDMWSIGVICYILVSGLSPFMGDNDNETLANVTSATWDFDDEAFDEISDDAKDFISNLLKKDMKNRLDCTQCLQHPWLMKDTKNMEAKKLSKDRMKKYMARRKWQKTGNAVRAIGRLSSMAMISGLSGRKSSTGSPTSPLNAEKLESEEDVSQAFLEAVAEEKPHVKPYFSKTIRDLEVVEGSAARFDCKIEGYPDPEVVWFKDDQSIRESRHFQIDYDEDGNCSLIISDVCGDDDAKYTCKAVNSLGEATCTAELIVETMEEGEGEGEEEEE
# T6 sequence (O00506 whole entry): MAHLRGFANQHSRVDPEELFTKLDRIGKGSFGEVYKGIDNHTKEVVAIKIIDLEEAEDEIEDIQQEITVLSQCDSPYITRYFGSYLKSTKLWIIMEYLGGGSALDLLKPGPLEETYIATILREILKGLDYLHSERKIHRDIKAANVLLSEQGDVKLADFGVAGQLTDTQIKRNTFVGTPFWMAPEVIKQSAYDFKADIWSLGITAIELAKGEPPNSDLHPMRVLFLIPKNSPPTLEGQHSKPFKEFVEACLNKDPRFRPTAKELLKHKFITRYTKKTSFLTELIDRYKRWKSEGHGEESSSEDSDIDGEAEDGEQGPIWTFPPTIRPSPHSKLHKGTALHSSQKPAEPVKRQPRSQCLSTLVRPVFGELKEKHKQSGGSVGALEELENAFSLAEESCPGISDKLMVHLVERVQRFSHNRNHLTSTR
SMILES,remaining activity at 1 µM (panel of 442 kinases [1]),remaining activity at 1 µM (panel of 442 kinases [2]),remaining activity at 1 µM (panel of 442 kinases [3]),remaining activity at 1 µM (panel of 442 kinases [4]),remaining activity at 1 µM (panel of 442 kinases [5]),remaining activity at 1 µM (panel of 442 kinases [6]),remaining activity at 1 µM (panel of 442 kinases [7]),remaining activity at 1 µM (panel of 442 kinases [8]),remaining activity at 1 µM (panel of 442 kinases [9]),remaining activity at 1 µM (panel of 442 kinases [10]),remaining activity at 1 µM (panel of 442 kinases [11]),remaining activity at 1 µM (panel of 442 kinases [12]),remaining activity at 1 µM (panel of 442 kinases [13]),further results
Nc1cc(C(F)(F)F)c(-c2cc(N3CCOCC3)nc(N3CCOCC3)n2)cn1 [Buparlisib],100%,100%,90%,90%,88%,100%,88%,98%,80%,100%,99%,100%,97%,"remaining activity at 10 µM (panel of 442 kinases [1]; [14]): 100%; remaining activity at 10 µM (panel of 442 kinases [2]; [14]): 100%; remaining activity at 10 µM (panel of 442 kinases [3]; [14]): 100%; remaining activity at 10 µM (panel of 442 kinases [4]; 10 µM, read-out: STK33 (% of control at 10 µM)): 97%; remaining activity at 10 µM (panel of 442 kinases [5]; [14]): 85%; remaining activity at 10 µM (panel of 442 kinases [6]; 10 µM, read-out: YSK1 (% of control at 10 µM)): 100%; remaining activity at 10 µM (panel of 442 kinases [7]; [14]): 100%; remaining activity at 10 µM (panel of 442 kinases [8]; 10 µM, read-out: TXK (% of control at 10 µM)): 89%; remaining activity at 10 µM (panel of 442 kinases [9]; [14]): 24%; remaining activity at 10 µM (panel of 442 kinases [10]; 10 µM, read-out: RET(V804L) (% of control at 10 µM)): 100%; remaining activity at 10 µM (panel of 442 kinases [11]; [14]): 92%; remaining activity at 10 µM (panel of 442 kinases [12]; 10 µM, read-out: TNNI3K (% of control at 10 µM)): 100%; remaining activity at 10 µM (panel of 442 kinases [13]; [14]): 100%"
"Cn1c(=O)n(-c2ccc(C(C)(C)C#N)cc2)c2c3cc(-c4cnc5ccccc5c4)ccc3ncc21 [Dactolisib, 2-methyl-2-[4-(3-methyl-2-oxo-8-quinolin-3-yl-2,3-dihydroimidazo[4,5-c]quinolin-1-yl)-phenyl] propionitrile]",82%,92%,100%,100%,42%,100%,99%,100%,59%,99%,100%,76%,84%,
COc1ncc(-c2ccc3nccc(-c4ccnnc4)c3c2)cc1NS(=O)(=O)c1ccc(F)cc1F [Omipalisib],100%,100%,100%,100%,69%,91%,100%,82%,90%,99%,78%,100%,66%,
"FC(F)c1nc2ccccc2n1-c1nc(N2CCOCC2)nc(N2CCOCC2)n1 [ZSTK474, 2-(difluoromethyl)-1-[4,6-di(4-morpholinyl)-1,3,5-triazin-2-yl]-1H-benzimidazole]",83%,99%,100%,100%,99%,83%,91%,83%,100%,93%,100%,95%,100%,
